Tests used:
DUSP6 = experiment: SHP-77 xenograft single-dose PK/PD study, tumor DUSP6 levels; assay type: in vivo, mouse; settings: single oral dose of 30 mg/kg
Excerpt: (§1) The purpose of the study was to assess the anti-tumor activity in difficult KRAS mutated xenograft tumor model using SHP-77 (small cell lung cancer, SCLC; ATCC CRL-2195) by examining the time-dependent effects on MAPK pathway modulation and tumor suppression post-administration of Example 24 and reference compound A122.
(§2) Female CB17-SCID mice at 6-8 weeks old from Vital River Co., LTD. were used for these studies. In order to generate subcutaneous xenograft tumors, each mouse was inoculated at the right flank with tumor cells in 100 μL of PBS and Matrigel matrix in the right hind flank with 1×10^7 cells. Mouse health was monitored daily, and caliper measurements began when tumors were palpable. Tumor volume measurements were determined utilizing the formula 0.5×L×W^2 in which L refers to length and W refers to width of each tumor. When tumors reached an average tumor volume of approximately 100-200 mm^3 for efficacy study and 300-500 mm^3 for single-dose PK/PD study, mice were randomized into treatment groups.
(§3) Mice were treated by oral gavage at 10 mg/kg with either vehicle consisting of DMSO: Solutol HS15: water=10:10:80 (% v/v/v) or compounds (Example 24, A122) in vehicle at indicated doses. For efficacy studies, animals were orally administered daily, tumor volumes and body weights were measured 3 times per week. Study day on efficacy plots indicates the day after which compound treatment was initiated. For single-dose PK/PD study, at the indicated time points after a single dose of Example 24 at the indicated dose levels, tumor samples were collected for PD analysis. RNA extraction and analysis of DUSP6 levels by in tumor tissue were performed as described in Example 134.

WT HRAS-BRAF complex = WT HRAS-BRAF complex (Homo sapiens (Human), UniProt P01112+P62937); experiment: WT HRAS-BRAF with CYPA interaction assay (TR-FRET); assay type: biochemical; settings: WT HRAS
Protocol: In this example, TR-FRET was used to measure the compound or compound-CYPA dependent disruption of the KRAS G12V-BRAF complex to assess inhibition efficacy. The IC50 ratio between WT KRAS/HRAS/NRAS and KRAS G12V mutant was calculated as selective index, which indicated tolerability and safety profile. Disruption of WT KRAS/HRAS/NRAS-BRAF complex by compounds was detected respectively. In assay buffer containing 25 mM HEPES (PH-7.4,4-(2-hydroxyethyl)-1-piperazineethanesulfonic acid, Thermo, 15630080), 0.002% Tween20, 0.1% BSA, 100 mM NaCl, 5 mM MgCl2, 10 μM GMPPNP (Guanosine 5′-[β,γ-imido]triphosphate trisodium salt hydrate, Sigma, G0635), tagless CYPA and GMPPNP loaded 6His-RAS proteins, and GST-BRAF^RBD were mixed in a well of a 384-well assay plate at final concentrations of 50 nM, 6.25 nM and 1 nM, respectively. Compound was present in plate wells as a 16-point 3-fold dilution series starting at a final concentration of 10 μM and incubated for 3 hours. A mixture of MAb Anti-6His-XL665 (Cisbio, 61HISXLB) and Mab anti-GST-TB cryptate (Cisbio, 61GSTTLB) was then added at a final concentration of 6.67 nM and 0.21 nM, respectively, and the plate was incubated for an additional 1.5 hours. TR-FRET signal was read on a PHERstar FSX microplate reader (Ex320 nm, Em 665/615 nm). Compounds that facilitate disruption of the RAS-BRAF complex were identified as those eliciting a decrease in the TR-FRET ratio relative to DMSO control wells.

SHP-77 xenograft tumor = experiment: SHP-77 SCLC xenograft efficacy study; assay type: in vivo; settings: for mean tumor growth inhibition (TGI): daily 30 mg/kg p.o., 14 days treatment, SHP-77 xenograft
Excerpt: as §1, §2, §3

hERG potassium channel = hERG potassium channel (Homo sapiens (Human), UniProt Q12809); experiment: hERG potassium channel assay (manual patch clamp, CHO cells); assay type: cell-based; settings: for IC50 / IC20: 34° C., manual patch, CHO cells; for IC20: human, CHO cells stably transfected with hERG channel
Protocol: The purpose of the test was to screen compounds for the activity on hERG channels as a non-clinical cardiac safety evaluation.
Advanced hERG experiments were performed at near-physiological temperature (34° C.) by HEKA EPC10 manual patch system (heka elektronik, EPC10 amplifier). The CHO cells (B′SYS GmbH) stably transfected hERG channel were initially held at −80 mV, depolarized to voltages between −40 mV (100 ms) to 20 mV (500 ms) to activate the hERG outward currents, and then repolarized to −40 mV (500 ms) to record the hERG tail currents, with an interpulse interval of 15s. The recording environment included: Extracellular solution (in mM): 150 NaCl, 4 KCl, 1.2 CaCl2), 1 MgCl2 and 10 HEPES; pH adjusted to 7.2-7.4 with 5 M NaOH; Intracellular solution (in mM): 125 KCl, 10 NaCl, 5 EGTA, 10 HEPES, 0.1 Na2GTP and 5 MgATP; pH adjusted to 7.2 with 1 M KOH. Current inhibitions in the presence of more than 4 concentrations in quadruplicate were used to fit hERG IC50 by Graphpad prism V8.0.

Sequence of hERG potassium channel (Q12809 whole entry): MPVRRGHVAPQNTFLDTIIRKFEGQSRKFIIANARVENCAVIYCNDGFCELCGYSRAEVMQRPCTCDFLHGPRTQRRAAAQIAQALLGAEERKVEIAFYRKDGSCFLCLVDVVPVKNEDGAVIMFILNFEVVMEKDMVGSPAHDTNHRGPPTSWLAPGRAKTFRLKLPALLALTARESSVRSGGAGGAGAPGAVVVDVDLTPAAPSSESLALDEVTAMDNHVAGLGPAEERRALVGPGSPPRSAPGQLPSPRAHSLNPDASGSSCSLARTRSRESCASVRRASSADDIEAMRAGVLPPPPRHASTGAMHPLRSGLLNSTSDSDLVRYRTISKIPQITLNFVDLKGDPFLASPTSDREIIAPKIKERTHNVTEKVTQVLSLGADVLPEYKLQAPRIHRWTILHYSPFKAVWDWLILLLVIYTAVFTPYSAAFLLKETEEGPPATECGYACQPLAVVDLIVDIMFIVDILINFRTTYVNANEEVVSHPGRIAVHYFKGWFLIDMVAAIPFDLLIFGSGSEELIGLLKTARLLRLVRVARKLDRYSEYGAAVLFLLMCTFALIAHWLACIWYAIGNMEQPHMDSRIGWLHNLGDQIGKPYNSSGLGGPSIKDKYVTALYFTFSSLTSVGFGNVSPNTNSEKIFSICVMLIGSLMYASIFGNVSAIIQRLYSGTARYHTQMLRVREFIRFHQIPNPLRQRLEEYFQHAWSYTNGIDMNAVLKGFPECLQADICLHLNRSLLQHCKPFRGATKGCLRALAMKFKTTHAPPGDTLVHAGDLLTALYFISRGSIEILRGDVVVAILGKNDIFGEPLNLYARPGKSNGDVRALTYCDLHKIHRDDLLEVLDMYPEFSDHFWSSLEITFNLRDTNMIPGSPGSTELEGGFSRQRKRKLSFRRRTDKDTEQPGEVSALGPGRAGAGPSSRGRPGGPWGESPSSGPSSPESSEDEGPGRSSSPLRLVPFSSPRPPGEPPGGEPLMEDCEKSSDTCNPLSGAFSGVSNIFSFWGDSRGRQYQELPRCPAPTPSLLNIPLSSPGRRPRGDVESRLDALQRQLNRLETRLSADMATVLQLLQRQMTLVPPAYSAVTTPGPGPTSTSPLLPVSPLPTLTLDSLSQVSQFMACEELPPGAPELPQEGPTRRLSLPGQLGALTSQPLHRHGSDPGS
Sequence of WT HRAS-BRAF complex (P01112 whole entry, looked up): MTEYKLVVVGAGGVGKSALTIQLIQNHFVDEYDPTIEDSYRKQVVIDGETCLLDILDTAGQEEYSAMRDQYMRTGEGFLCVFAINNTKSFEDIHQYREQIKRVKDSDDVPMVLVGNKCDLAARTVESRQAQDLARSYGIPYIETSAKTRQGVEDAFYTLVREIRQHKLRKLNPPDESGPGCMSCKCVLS
Sequence of WT HRAS-BRAF complex (P62937 whole entry, looked up): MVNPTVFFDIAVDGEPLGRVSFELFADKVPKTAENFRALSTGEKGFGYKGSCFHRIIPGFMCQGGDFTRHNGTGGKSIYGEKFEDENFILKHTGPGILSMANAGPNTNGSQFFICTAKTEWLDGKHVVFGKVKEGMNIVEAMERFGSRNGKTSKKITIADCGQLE

SMILES	tumor DUSP6 levels remaining (DUSP6; 24 h) [%]	tumor DUSP6 levels remaining (DUSP6; 48 hours) [%]	tumor DUSP6 levels remaining (DUSP6; 72 hours) [%]	IC50 (WT HRAS-BRAF complex) [µM]	mean tumor growth inhibition (TGI) (SHP-77 xenograft tumor) [%]	tolerability based on body weights (SHP-77 xenograft tumor; daily administration at 30 mg/kg, SHP-77 xenograft mice)	fold higher hERG IC20 compared to A122 (hERG potassium channel) [fold]	fold higher hERG IC20 compared to A252 (hERG potassium channel) [fold]	IC50 (hERG potassium channel) [µM]	IC20 (hERG potassium channel) [µM]
CO[C@@H](C)c1ncc(N2CCN(C)CC2)cc1-c1c2c3cc(cc4c3n1CCC4)-c1csc(n1)C[C@H](NC(=O)[C@H]1[C@H](C)[C@@H]1C)C(=O)N1CCC[C@H](N1)C(=O)OCC(C)(C)C2 (atropisomer, axis not shown; (M)) [Example 24, (1r,2R,3S)-N-[(7S,13S)-(20M)-20-[2-[(1S)-1-methoxyethyl]-5-(4-methylpiperazin-1-yl)-3-pyridyl]-17,17-dimethyl-8,14-dioxo-15-oxa-4-thia-9,21,30,31-tetrazahexacyclo[23.3.1.1^2,5.1^9,13.0^19,27.0^21,26]hentriaconta-1 (28),2,5 (31), 19,25 (29),26-hexaen-7-yl]-2,3-dimethyl-cyclopropanecarboxamide]	3.9	31	73.7	0.038	70	well-tolerated	3	4	63.7	13.8
CCn1c(-c2cc(N3CCN(C)CC3)cnc2[C@H](C)OC)c2c3cc(ccc31)-c1csc(n1)C[C@H](NC(=O)[C@H]1C[C@@H]1C)C(=O)N1CCC[C@H](N1)C(=O)OCC(C)(C)O2 [Example A122, reference compound]	4.3	67	126	0.01	43	–	–	–	16.9	4.6

From patent publication US20240417410A1, “TRICYCLIC COMPOUNDS FOR THE TREATMENT OF CANCER” (Hoffmann-La Roche Inc., priority 2023, published 2024)
